From ChEMBL document CHEMBL1128375, “Prodrugs of nitroxyl as potential aldehyde dehydrogenase inhibitors vis-a-vis vascular smooth muscle relaxants” (J Med Chem, 1995)

Species on record: Oryctolagus cuniculus
Assay: In vitro relaxation of precontracted rabbit aortic rings.
Assay type: functional
Settings: Aorta

| EC50 [µM] | Structure (SMILES) |
| --- | --- |
| 14.4 | O=C1c2ccccc2S(=O)(=O)N1O |
| 52.2 | CC(=O)ON1C(=O)c2ccccc2S1(=O)=O |
| 1.36 | O=S(=O)(NO)c1ccc(Cl)cc1 |
| 1.03 | O=S(=O)(NO)c1ccccc1 |
